For this assay, the target named is T1, β-lactamase TEM-1 (Escherichia coli, UniProt P62593).
T1 construct: made in house; host or cells: cell-free in vitro translation as described by Zubay (microbial system)
The experiment in a line: "resistance to clavulanic acid" beta-lactamase activity test with nitrocephine on in vitro translated enzyme. Type of assay: biochemical. The settings on record: sample 1 (100% germs resistant to antibiotics only, 0% double resistance); 1 μl clavulanic acid, 3 minutes at 25° C., then nitrocephine; 486 nm. The method, then:
10 μl of culture at DO600.2.3 were centrifuged and each pellet was resuspended into 12 μl of cellular lysis buffer (10 mM Tris HCl pH 7.5, 1 mM EDTA, 50 μg/ml proteinase K) and incubated 15 minutes at 55° C. then 15 minutes at 80° C. 9 μl of each of these lysates was added to a PCR amplification mixture that permitted amplification of the gene conferring monoresistance and of the gene conferring polyresistance, as well as of the sequences permitting their in vitro expression. 5 μl of each PCR amplification were used to carry out an in vitro transcription as described by Gurevich et al. (Gurevich V. A., Pokrovskaya I. D., Obukhova T. A. and Zozulya S., 1991, Preparative in vitro mRNA synthesis using SP6 and T7 polymerases, Anal. Biochem., 195, 207-213) 10 μl of each transcription was used to translate in vitro the proteins as described by Zubay (Zubay G., 1973, In vitro synthesis of protein in microbial systems, Ann. Rev. Genet., 7, 267-287) to a final volume of 100 μl
Two types of activity tests were carried out: • A measurement of the “total” beta-lactamase activity by using as substrate a chromogenic antibiotic: nitrocephine. […] The reaction was followed by monitoring absorbance changes at 486 nm. • A measurement of the “resistance to clavulanic acid” activity by using as substrate a chromogenic antibiotic: nitrocephine and a given concentration of clavulanic acid. […]

Molecules are shown by their SMILES.

T1 sequence (P62593 24-286 limits assumed): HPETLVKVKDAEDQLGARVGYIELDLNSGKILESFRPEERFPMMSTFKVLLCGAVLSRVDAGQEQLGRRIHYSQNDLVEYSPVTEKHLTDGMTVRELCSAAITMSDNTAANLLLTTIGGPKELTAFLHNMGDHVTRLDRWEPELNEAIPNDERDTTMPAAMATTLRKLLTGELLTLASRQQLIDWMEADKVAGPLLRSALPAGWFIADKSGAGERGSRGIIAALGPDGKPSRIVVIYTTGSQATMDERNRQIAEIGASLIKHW

Turning to `O=C(O)[C@H]1/C(=C/CO)O[C@@H]2CC(=O)N21` [clavulanic acid], the “beta-lactamase activity detected in the presence of clavulanic acid” value is listed as “no activity is detected”.

The values are drawn from patent publication US8017318B1, “Method for detecting and/or quantifying a known function from a nucleic acid sample” (priority 1998, dated 2011).
